The values below come from ChEMBL document CHEMBL4118147, “Structure-activity relationship of clovamide and its related compounds for the inhibition of amyloid β aggregation” (Bioorg Med Chem, 2018).

Molecules are shown by their SMILES. The source made the active and inactive calls. The rule behind the calls is not given here. Bounds are passed on as bounds.

The target of assay [1] is T1, Amyloid-beta precursor protein (Homo sapiens, UniProt P05067). In words: Inhibition of amyloid beta (1 to 42) (unknown origin) aggregation after 24 hrs by thioflavin T fluorescence assay.
T1 sequence (P05067 whole entry): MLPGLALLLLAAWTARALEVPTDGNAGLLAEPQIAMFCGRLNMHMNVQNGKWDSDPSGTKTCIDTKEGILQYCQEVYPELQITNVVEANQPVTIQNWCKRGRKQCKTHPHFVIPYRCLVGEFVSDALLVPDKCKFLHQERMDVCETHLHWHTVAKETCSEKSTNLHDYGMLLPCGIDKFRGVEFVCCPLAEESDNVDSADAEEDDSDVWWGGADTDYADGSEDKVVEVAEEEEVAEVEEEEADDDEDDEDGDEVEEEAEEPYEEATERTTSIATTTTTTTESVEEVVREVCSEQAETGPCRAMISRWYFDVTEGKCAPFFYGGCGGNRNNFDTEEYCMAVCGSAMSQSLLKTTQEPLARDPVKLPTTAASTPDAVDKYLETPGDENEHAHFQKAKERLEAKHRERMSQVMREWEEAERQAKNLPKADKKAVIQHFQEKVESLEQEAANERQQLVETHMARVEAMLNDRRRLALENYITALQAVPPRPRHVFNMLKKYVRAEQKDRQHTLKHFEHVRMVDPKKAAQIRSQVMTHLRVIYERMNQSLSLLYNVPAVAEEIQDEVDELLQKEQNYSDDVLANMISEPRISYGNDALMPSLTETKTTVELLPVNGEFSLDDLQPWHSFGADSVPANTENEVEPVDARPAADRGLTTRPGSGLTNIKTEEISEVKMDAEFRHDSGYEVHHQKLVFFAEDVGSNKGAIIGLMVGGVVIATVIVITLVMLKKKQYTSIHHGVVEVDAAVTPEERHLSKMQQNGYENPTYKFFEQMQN
Assay [2] addresses T1, Amyloid-beta precursor protein. The experiment in a line: Inhibition of amyloid beta (1 to 42) (unknown origin) fibril formation after 24 hrs by silicotungstic acid staining based transmission electron microscopic analysis.
For assay [3] the target is unchanged. In words: Inhibition of amyloid beta (1 to 42) (unknown origin) fibril formation at 100 uM after 24 hrs by silicotungstic acid staining based transmission electron microscopic analysis.

Usually IC50 stands for the midpoint of a concentration-inhibition curve. Low readings indicate higher potency, high ones lower potency. In the case of `COC(=O)[C@H](Cc1ccc(O)c(O)c1)NC(=O)/C=C/c1ccc(O)c(O)c1` [N-CAFFEOYL-DOPA METHYL ESTER], in assay [1], the IC50 stood at 4.9 µM and the inhibition entry is “Dose-dependent effect”. Also, the inhibition entry in assay [2] was “Dose-dependent effect”.
In the case of `O=C(/C=C/c1ccc(O)c(O)c1)N[C@@H](Cc1ccc(O)c(O)c1)C(=O)O`, in assay [1], the IC50 was found to be 5.7 µM and the inhibition entry is “Dose-dependent effect”. For the same compound, the inhibition result in assay [2] is “Dose-dependent effect”.
`O=C(/C=C/c1ccc(O)cc1)N[C@@H](Cc1ccccc1)C(=O)O`: in assay [1], the IC50 was greater than 100 µM. Besides, the inhibition result in assay [3] was “inactive”.
The like results for `O=C(/C=C/c1ccccc1)N[C@@H](Cc1ccccc1)C(=O)O` were, in that order, greater than 100 µM and “inactive”.
As to `O=C(/C=C/c1ccc(O)c(O)c1)N[C@@H](Cc1ccccc1)C(=O)O`, in assay [1], inhibition was half-maximal at 72.9 µM (IC50) and the inhibition entry is “Dose-dependent effect”. In assay [2], the inhibition entry was “Dose-dependent effect”.
`O=C(CCc1ccc(O)c(O)c1)N[C@@H](Cc1ccc(O)c(O)c1)C(=O)O`: in assay [1], the midpoint of inhibition, the IC50, lay at 8.7 µM and the inhibition result is “Dose-dependent effect”. The inhibition result in assay [2] is “Dose-dependent effect”.
For `O=C(/C=C/c1ccccc1)N[C@@H](Cc1ccc(O)c(O)c1)C(=O)O`, in assay [1], the IC50 is 22.7 µM and the inhibition result is “Dose-dependent effect”. For the same compound, the inhibition result in assay [2] was “Dose-dependent effect”.
Take `O=C(/C=C/c1ccc(O)c(O)c1)N[C@H](Cc1ccc(O)c(O)c1)C(=O)O`: in assay [1], the 50% inhibitory concentration (IC50) amounted to 1.6 µM and the inhibition result was “Dose-dependent effect”. Further, the inhibition result in assay [2] is “Dose-dependent effect”.
Turning to `COC(=O)[C@H](Cc1ccc(OC)c(OC)c1)NC(=O)/C=C/c1ccc(OC)c(OC)c1`, the IC50 in assay [1] is greater than 100 µM. In assay [3], the inhibition entry was “inactive”.
In the case of `O=C(/C=C/c1ccccc1)N[C@@H](Cc1ccc(O)cc1)C(=O)O`, in assay [1], the concentration for half-maximal inhibition (IC50) was greater than 100 µM. Further, the inhibition entry in assay [3] is “inactive”.
Regarding `O=C(/C=C/c1ccc(O)cc1)N[C@@H](Cc1ccc(O)c(O)c1)C(=O)O`, the IC50 in assay [1] was greater than 100 µM. In assay [3], the inhibition entry was “inactive”.
On to `O=C(/C=C/c1ccc(O)c(O)c1)N[C@@H](Cc1ccc(O)cc1)C(=O)O`, for which, in assay [1], half-maximal inhibition (IC50) required 87.8 µM and the inhibition result was “Dose-dependent effect”. The inhibition entry in assay [2] is “Dose-dependent effect”.
The compound `O=C(/C=C/c1ccc(O)cc1)N[C@@H](Cc1ccc(O)cc1)C(=O)O` registered an IC50 in assay [1] greater than 100 µM. Further, the inhibition entry in assay [3] was “inactive”.
